The text below walks through data of ChEMBL document CHEMBL5291721, “A preclinical secondary pharmacology resource illuminates target-adverse drug reaction associations of marketed drugs” (Nat Commun, 2023).

The target in experiment [1] is Mu-type opioid receptor (Homo sapiens, UniProt P35372).
Experiment [2] has as its target T1, Muscarinic acetylcholine receptor M2 (Homo sapiens, UniProt P08172).
T1 sequence (P08172 whole entry): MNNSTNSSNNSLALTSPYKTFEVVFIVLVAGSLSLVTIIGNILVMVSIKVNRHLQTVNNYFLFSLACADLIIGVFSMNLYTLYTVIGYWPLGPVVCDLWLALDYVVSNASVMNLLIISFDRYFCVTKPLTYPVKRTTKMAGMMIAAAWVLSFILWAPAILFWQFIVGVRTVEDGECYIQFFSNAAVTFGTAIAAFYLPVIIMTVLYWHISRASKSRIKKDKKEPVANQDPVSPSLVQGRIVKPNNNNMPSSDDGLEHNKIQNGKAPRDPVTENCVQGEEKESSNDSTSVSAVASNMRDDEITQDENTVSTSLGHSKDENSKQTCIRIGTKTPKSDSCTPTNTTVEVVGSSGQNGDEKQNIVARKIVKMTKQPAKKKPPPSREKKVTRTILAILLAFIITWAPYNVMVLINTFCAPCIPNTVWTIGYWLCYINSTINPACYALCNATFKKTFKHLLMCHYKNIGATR
Type of experiment: functional, cell-based.

Experiment [3] concerns the target T2, Type-1 angiotensin II receptor (Homo sapiens, UniProt P30556).
T2 sequence (P30556 whole entry): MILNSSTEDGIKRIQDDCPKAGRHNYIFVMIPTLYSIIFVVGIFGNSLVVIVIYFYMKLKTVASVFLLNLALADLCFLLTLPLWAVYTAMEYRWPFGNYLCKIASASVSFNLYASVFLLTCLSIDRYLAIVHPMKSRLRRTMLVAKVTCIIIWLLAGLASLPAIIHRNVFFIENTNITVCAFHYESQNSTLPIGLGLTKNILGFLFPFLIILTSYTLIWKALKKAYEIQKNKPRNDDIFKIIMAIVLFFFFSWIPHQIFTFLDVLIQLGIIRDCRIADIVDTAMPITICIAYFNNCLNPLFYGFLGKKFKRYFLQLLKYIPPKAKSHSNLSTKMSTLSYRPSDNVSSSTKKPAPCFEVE

Experiment [4] deals with T3, Prostaglandin G/H synthase 1 (Rattus norvegicus, UniProt Q63921).
T3 sequence (Q63921 whole entry): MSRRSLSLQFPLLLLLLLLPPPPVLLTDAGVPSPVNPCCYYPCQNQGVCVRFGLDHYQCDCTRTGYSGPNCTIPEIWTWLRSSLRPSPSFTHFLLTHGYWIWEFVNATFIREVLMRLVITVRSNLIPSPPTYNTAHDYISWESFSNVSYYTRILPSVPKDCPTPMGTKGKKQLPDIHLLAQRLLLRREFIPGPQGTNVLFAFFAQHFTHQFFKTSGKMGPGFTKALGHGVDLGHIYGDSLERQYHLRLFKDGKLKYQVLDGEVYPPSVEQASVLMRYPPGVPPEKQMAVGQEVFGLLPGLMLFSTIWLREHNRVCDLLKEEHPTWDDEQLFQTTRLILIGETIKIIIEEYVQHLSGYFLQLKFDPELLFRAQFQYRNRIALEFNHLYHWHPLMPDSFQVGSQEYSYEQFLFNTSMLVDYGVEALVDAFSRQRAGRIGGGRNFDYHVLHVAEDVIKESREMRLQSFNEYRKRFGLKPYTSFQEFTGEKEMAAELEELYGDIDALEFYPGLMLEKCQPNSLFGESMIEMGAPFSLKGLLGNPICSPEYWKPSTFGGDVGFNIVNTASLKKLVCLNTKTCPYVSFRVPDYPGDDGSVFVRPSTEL
Type of experiment: functional.

Experiment [5] has as its target T4, Progesterone receptor (Homo sapiens, UniProt P06401).
T4 sequence (P06401 whole entry): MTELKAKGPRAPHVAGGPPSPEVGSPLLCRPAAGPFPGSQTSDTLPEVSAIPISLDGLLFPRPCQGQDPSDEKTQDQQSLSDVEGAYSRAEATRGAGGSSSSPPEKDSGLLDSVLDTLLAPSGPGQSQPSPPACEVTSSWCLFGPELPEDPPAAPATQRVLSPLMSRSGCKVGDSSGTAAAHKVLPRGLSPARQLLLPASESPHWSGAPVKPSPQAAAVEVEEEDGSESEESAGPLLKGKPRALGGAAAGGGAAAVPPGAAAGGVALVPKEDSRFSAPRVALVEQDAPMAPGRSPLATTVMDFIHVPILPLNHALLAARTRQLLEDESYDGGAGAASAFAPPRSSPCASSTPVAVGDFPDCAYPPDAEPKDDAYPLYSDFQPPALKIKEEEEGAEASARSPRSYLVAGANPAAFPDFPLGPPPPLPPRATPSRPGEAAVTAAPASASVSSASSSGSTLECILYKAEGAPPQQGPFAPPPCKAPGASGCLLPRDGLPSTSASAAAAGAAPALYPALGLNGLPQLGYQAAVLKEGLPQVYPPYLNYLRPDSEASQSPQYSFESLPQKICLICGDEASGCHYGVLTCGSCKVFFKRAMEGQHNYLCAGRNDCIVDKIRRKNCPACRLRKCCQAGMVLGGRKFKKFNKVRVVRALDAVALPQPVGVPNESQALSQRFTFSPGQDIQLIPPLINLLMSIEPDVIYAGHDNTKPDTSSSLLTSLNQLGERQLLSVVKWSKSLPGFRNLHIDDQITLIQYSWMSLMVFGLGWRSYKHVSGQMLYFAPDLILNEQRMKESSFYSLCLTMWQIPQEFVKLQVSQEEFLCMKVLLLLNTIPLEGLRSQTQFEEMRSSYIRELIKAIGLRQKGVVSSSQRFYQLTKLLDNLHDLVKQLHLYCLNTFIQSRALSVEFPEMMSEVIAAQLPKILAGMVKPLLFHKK
Type of experiment: functional.

In experiment [6] the target is 5-hydroxytryptamine receptor 2B (Homo sapiens, UniProt P41595). Type of experiment: functional, cell-based.
Chain of 5-hydroxytryptamine receptor 2B (P41595 whole entry): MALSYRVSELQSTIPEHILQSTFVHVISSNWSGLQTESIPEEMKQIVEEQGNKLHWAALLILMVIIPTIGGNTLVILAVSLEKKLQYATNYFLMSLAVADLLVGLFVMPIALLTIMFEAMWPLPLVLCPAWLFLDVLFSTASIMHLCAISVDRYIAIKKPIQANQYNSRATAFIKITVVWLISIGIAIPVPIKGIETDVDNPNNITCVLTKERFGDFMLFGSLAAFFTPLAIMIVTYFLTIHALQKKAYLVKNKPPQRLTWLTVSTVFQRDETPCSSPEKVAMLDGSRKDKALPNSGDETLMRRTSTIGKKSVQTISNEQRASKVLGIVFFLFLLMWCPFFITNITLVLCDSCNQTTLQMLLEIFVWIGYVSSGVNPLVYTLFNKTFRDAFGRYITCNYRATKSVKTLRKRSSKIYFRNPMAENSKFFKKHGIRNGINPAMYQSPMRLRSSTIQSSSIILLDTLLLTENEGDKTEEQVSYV
Experiment [7] deals with Vasopressin V1a receptor (Homo sapiens, UniProt P37288).
Chain of Vasopressin V1a receptor (P37288 whole entry): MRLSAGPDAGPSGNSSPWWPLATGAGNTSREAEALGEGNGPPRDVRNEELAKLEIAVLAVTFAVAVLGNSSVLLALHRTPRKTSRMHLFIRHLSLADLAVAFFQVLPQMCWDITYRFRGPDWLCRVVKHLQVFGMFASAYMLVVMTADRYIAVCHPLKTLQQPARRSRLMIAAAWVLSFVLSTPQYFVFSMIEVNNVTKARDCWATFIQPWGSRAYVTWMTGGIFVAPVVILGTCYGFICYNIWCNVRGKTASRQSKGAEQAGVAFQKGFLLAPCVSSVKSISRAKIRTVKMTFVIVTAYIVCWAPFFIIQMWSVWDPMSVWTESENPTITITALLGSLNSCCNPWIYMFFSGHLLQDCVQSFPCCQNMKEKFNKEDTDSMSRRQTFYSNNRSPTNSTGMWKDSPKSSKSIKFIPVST
Also: assay procedure not described here.

Chain of Mu-type opioid receptor (P35372 whole entry): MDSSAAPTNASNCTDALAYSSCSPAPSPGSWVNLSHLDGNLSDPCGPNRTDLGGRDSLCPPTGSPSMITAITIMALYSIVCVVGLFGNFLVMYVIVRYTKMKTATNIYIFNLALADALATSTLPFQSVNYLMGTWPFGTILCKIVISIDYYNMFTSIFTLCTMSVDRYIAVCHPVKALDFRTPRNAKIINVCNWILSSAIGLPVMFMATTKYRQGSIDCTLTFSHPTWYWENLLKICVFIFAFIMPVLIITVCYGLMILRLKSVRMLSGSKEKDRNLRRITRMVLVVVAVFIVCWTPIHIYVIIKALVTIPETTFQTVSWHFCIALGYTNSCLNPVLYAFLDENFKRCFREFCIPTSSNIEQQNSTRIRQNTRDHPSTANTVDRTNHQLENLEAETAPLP

One may read the AC50 as the midpoint of the concentration-response curve, whichever way the signal moves. Turning to `CCOc1cc([C@@H](CS(C)(=O)=O)N2C(=O)c3cccc(NC(C)=O)c3C2=O)ccc1OC`, the concentration at half-maximal activity (AC50) in experiment [1], in experiment [2], in experiment [3], in experiment [4], in experiment [5] and in experiment [6] was more than 30 µM in each case. The compound also yielded an AC50 in experiment [7] of more than 30 µM.
`CC(=O)Nc1ccc(CC(=O)O)cc1` [ACTARIT]: the AC50 in experiment [2], in experiment [3], in experiment [4], in experiment [5], in experiment [6] and in experiment [7] was more than 30 µM throughout.
As for `CC(C(=O)O)c1ccc2oc(-c3ccc(Cl)cc3)nc2c1` (stereo unspecified) [BENOXAPROFEN], the AC50 in experiment [2], in experiment [3], in experiment [5] and in experiment [6] was more than 30 µM throughout.
Consider `CC1(C)S[C@@H]2[C@H](NC(=O)C(C(=O)O)c3ccccc3)C(=O)N2[C@H]1C(=O)O` (stereo partly specified) [CARBENICILLIN], for which the AC50 in experiment [2], in experiment [3], in experiment [4], in experiment [5], in experiment [6] and in experiment [7] was more than 30 µM each time.
As for `Cc1nnc(SCC2=C(C(=O)O)N3C(=O)[C@@H](NC(=O)Cn4cnnn4)[C@H]3SC2)s1` [CEFAZOLIN], the AC50 in experiment [1] is more than 300 µM; in experiment [2], more than 300 µM; in experiment [3], more than 300 µM; in experiment [4], 160 µM; in experiment [5], more than 300 µM; in experiment [6], more than 300 µM. In addition, the AC50 in experiment [7] was more than 300 µM.
As for `CC=CC1=C(C(=O)O)N2C(=O)[C@@H](NC(=O)[C@H](N)c3ccc(O)cc3)[C@H]2SC1` [CEFPROZIL], the AC50 was more than 30 µM in experiment [2]; more than 30 µM in experiment [3]; 13.7 µM in experiment [4]; more than 30 µM in experiment [5]; more than 30 µM in experiment [6]; more than 30 µM in experiment [7].
Turning to `CC(C)NC(=N)NC(=N)Nc1ccc(Cl)c(Cl)c1` [CHLORPROGUANIL], the half-maximal activity concentration (AC50) in experiment [6] is more than 30 µM.
In the case of `CCCNC(=O)NS(=O)(=O)c1ccc(Cl)cc1` [CHLORPROPAMIDE], the AC50 was more than 30 µM in experiment [1]; more than 10 µM in experiment [2]; more than 30 µM in experiment [3]; more than 30 µM in experiment [4]; more than 10 µM in experiment [6]; more than 30 µM in experiment [7].
For `Cc1cc(C2CCCCC2)n(O)c(=O)c1` [CICLOPIROX], the AC50 was more than 30 µM in experiment [2], more than 3 µM in experiment [4] and more than 30 µM in experiment [5].
With `C[N+](C)(C)CCOP(=O)(O)OP(=O)([O-])OC[C@H]1O[C@@H](n2ccc(N)nc2=O)[C@H](O)[C@@H]1O` [CITICOLINE], the AC50 in experiment [2] and in experiment [6] was more than 30 µM in each case.
In the case of `Clc1ccc(Cn2c(CN3CCCC3)nc3ccccc32)cc1` [CLEMIZOLE], the AC50 is more than 30 µM in experiment [1]; more than 10 µM in experiment [2]; more than 30 µM in experiment [3]; more than 30 µM in experiment [4]; 0.67 µM in experiment [6]; more than 30 µM in experiment [7].
As for `CCC(=O)O[C@]1(C(=O)CCl)[C@@H](C)C[C@H]2[C@@H]3CCC4=CC(=O)C=C[C@]4(C)[C@@]3(F)[C@@H](O)C[C@@]21C` [CLOBETASOL PROPIONATE], the AC50 in experiment [2] is more than 30 µM; in experiment [3], more than 30 µM; in experiment [4], more than 30 µM; in experiment [5] it was 0.053 µM; in experiment [6], more than 30 µM.
Take `CC(C)Cc1ccc([C@H](C)C(=O)O)cc1` [DEXIBUPROFEN]: the AC50 in experiment [1], in experiment [2], in experiment [3], in experiment [5], in experiment [6] and in experiment [7] was more than 30 µM throughout.
Take `CNC[C@H](O)c1ccc(O)c(O)c1` [EPINEPHRINE]: the concentration at half-maximal activity (AC50) in experiment [2], in experiment [3], in experiment [4], in experiment [5] and in experiment [6] was more than 30 µM throughout.
Turning to `COc1ccccc1OC1(C)OC(=O)c2ccccc2O1` (stereo unspecified) [GUAIMESAL], the AC50 in experiment [3], in experiment [5] and in experiment [7] was more than 30 µM throughout.
For `CCCCCCCN(CC)CCCC(O)c1ccc(NS(C)(=O)=O)cc1` (stereo unspecified) [IBUTILIDE], the AC50 is 22 µM in experiment [2]; more than 30 µM in experiment [3]; more than 30 µM in experiment [4]; more than 30 µM in experiment [5]; more than 30 µM in experiment [6]; more than 30 µM in experiment [7].
Take `CC[C@@H](CO)NC(=O)[C@@H]1C=C2c3cccc4c3c(cn4C)C[C@H]2N(C)C1` [METHYSERGIDE]: the AC50 in experiment [1], in experiment [2], in experiment [3], in experiment [4] and in experiment [7] was more than 30 µM in each case.
On to `CNC(=C[N+](=O)[O-])NCCSCc1csc(CN(C)C)n1` [NIZATIDINE], for which the AC50 was more than 30 µM in experiment [1]; more than 10 µM in experiment [2]; more than 10 µM in experiment [3]; more than 10 µM in experiment [4]; more than 10 µM in experiment [5]; more than 10 µM in experiment [6].
As for `Cn1cc(C(=O)[C@@H]2CCc3nc[nH]c3C2)c2ccccc21` [RAMOSETRON], the AC50 in experiment [2], in experiment [3], in experiment [4], in experiment [5], in experiment [6] and in experiment [7] was more than 30 µM throughout.
Regarding `S=P(N1CC1)(N1CC1)N1CC1` [THIOTEPA], the AC50 in experiment [1] is 28 µM; in experiment [3], more than 30 µM; in experiment [4], more than 30 µM; in experiment [5], more than 30 µM; in experiment [6], more than 30 µM; in experiment [7], more than 30 µM.
As for `CC(C)C[C@H](NC(=O)[C@@H](O)[C@H](N)Cc1ccccc1)C(=O)O` [UBENIMEX], the AC50 in experiment [2], in experiment [4], in experiment [5] and in experiment [6] was more than 30 µM throughout.
In the case of `COc1cc(C(=O)NS(=O)(=O)c2ccccc2C)ccc1Cc1cn(C)c2ccc(NC(=O)OC3CCCC3)cc12` [ZAFIRLUKAST], the half-maximal activity concentration (AC50) was more than 30 µM in experiment [1]; more than 10 µM in experiment [3]; 5.1 µM in experiment [4]; more than 30 µM in experiment [5]; more than 10 µM in experiment [7].
